Experiments:
lymphoma P 388 = assay: In vivo antitumor activity, lymphoma P 388; design: species or system mouse; settings: Table IX; subcutaneous P 388 in CDF1 mice; compound 1 or 20 40 mg/kg 5/week from D5, 5 weeks; VCR 0.63 mg/kg 3/week from D5, 3 weeks
Experimental: (§1) 4.—In Vivo Antitumor Activity in Combination With a Cytotoxic Agent
(§2) The tests were carried out on models of:
(§3) in the presence or absence of cytotoxic agents such as cyclophosphamide, etoposide, doxorubicin or vincristine.
(§4) When the MTD value of a product was determined, its in vivo antitumor activity was characterized at doses of MTD/2, MTD/4 and MTD/8 on the model of mouse mammary adenocarcinoma HS-MXT and on the model of lymphoma P 388.
(§5) In all the examples presented below, irrespective of the model (mammary adenocarcinoma HS-MXT or lymphoma P 388), the control condition is represented by a batch of 9 mice to which is administered for 5 consecutive weeks and at a rate of 5 administrations (Monday, Tuesday, Wednesday, Thursday and Friday) per week a volume of 0.2 ml of physiological saline containing the solvent used to dissolve the various compounds of formulae (I) and (Ia) used.
(§6) i)—The survival rate of the mice
(§7) This survival rate was calculated in the form of a ratio T/C:
(§8) This ratio represents the average survival time of the median mouse from the batch of treated mice relative to the average survival time of the median mouse from the batch of control mice. Thus, a molecule induces a significant (P<0.05) increase in the survival of the animals when the index T/C exceeds 130%. Conversely, it has a toxic effect when this value of T/C is less than 70%.
4- to 6-week-old CDF1 mice are grafted with a piece of P 388 tumor (from a tumor bank maintained in the laboratory) subcutaneously into the right flank on day D0. In order to be under conditions close to clinical reality, we waited until the 5th day post-grafting (D5) before starting the treatment. The reason for this was that, after this period of time, the subcutaneous P 388 tumors are palpable.
Compound 1 is administered alone. The first injection of the product is carried out on the 5th day post-grafting (D5) at a rate of 5 injections per week (Monday, Tuesday, Wednesday, Thursday and Friday) for five consecutive weeks-and at a dose of 40 mg/kg.
Compound 20 is administered alone. […]

[1] = test system: hormone-sensitive mouse mammary adenocarcinoma MXT (HS-MXT); assay: In vivo antitumor activity, mouse mammary adenocarcinoma HS-MXT
Experimental: as §1, §2
hormone-sensitive mouse mammary adenocarcinoma MXT (HS-MXT),
as §3, §4, §5
The following parameters were determined in these tests:
as §6, §7, §8
ii)—The tumor growth [lacuna] by measuring the area of the grafted HS-MXT or P 388 tumors twice a week (Monday and Friday). This area is calculated by multiplying the values of the largest two perpendicular axes of the tumor. The value of these axes is measured using a sliding caliper.
The model of hormone-sensitive MXT (HS-MXT) mouse mammary adenocarcinoma grafted onto 4- to 6-week-old B6D2F1/JIco mice is derived from the milk ducts of the mammary gland (Watson C. et al. Cancer Res. 1977; 37: 3344-48).
Compound 1 is administered alone. The first injection of the product is carried out on the seventh day post-grafting (D7) for four consecutive weeks at a rate of 5 injections per week (Monday, Tuesday, Wednesday, Thursday and Friday) and at a dose of 20 mg/kg.
Cyclophosphamide (CPA) is administered alone. The first injection of the product is carried out on the fourteenth day post-grafting (D14) for three consecutive weeks at a rate of 3 injections per week (Monday, Wednesday and Friday) and at a dose of 10 mg/kg.
Compound 1 is co-administered with cyclophosphamide. In this case, the first injection of compound 1 is carried out on the seventh day post-grafting (D7) for four consecutive weeks at a rate of 5 injections per week (Monday, Tuesday, Wednesday, Thursday and Friday) at a dose of 20 mg/kg, and the first injection of cyclophosphamide is carried out on the fourteenth day post-grafting (D14) for three consecutive weeks at a rate of 3 injections per week (Monday, Wednesday and Friday) at a dose of 10 mg/kg.
Etoposide (ETO) is administered alone. The first injection of the product is carried out on the fourteenth day post-grafting (D14) for three consecutive weeks at a rate of 3 injections per week (Monday, Wednesday and Friday) and at a dose of 10 mg/kg.
Doxorubicin (DOX) is administered alone. The first injection of the product is carried out on the fourteenth day post-grafting (D14) for three consecutive weeks at a rate of 3 injections per week (Monday, Wednesday and Friday) and at a dose of 5 mg/kg.
Compound 1 is co-administered with etoposide.

Row | SMILES | T/C (survival) (lymphoma P 388) [%] | T/C (survival) ([1]; Table VII, HS-MXT, compound 21 40 mg/kg 5/week from D7, 5 weeks, ETO 10 mg/kg 3/week from D7, 3 weeks) [%] | T/C (survival) ([1]; Table IV, HS-MXT in B6D2F1/JIco mice, compound 1 20 mg/kg 5 injections/week from D7, 4 weeks, CPA 10 mg/kg 3 injections/week from D14, 3 weeks) [%] | T/C (survival) ([1]; Table V, HS-MXT in B6D2F1/JIco mice, compound 1 20 mg/kg 5/week from D7, 4 weeks, ETO 10 mg/kg or DOX 5 mg/kg 3/week from D14, 3 weeks) [%] | Tumor area, reduction (−) or increase (+) compared with control ([1]; Table VI, HS-MXT tumors, 31st day after graft, 19 administrations of compound 1 (20 mg/kg), 8 of cyclophosphamide (10 mg/kg)) [%]
1 | COc1ccc(-c2cc3c(OC)cc(OC)cc3n(CCC#N)c2=O)cc1 [CRL8247, 3-[5,7-Dimethoxy-3-(4-methoxyphenyl)-2-oxo-1,2-dihydro-1-quinolinyl]propanenitrile] | 125 |  |  |  | 
2 | COc1ccc(-c2cc3c(OC)cc(OC)cc3n(CCc3nnn[nH]3)c2=O)cc1 [CRL8256, 1-[2-(1H-1,2,3,4-Tetrazol-5-yl)ethyl]-5,7-dimethoxy-3-(4-methoxyphenyl)-1,2-dihydro-2-quinolinone] |  | 110 |  |  | 
3 | COc1ccc(-c2cc3c(OC)cc(OC)cc3[nH]c2=O)cc1 [CRL8246, 5,7-Dimethoxy-3-(4-methoxyphenyl)-1,2-dihydro-2-quinolinone] | 120 |  | 100 | 95 | −19.5

Reference: patent US6593342B1, “Pharmaceutical compositions comprising 2-quinolones” (Laboratoire L. Lafon, priority 1998, dated 2003)
